Results: ChEMBL document CHEMBL2073828, “The breast cancer resistance protein (Bcrp1/Abcg2) restricts exposure to the dietary carcinogen 2-amino-1-methyl-6-phenylimidazo[4,5-b]pyridine” (Cancer Res, 2003)

Columns and labels:
[1] = biological target: T1, Broad substrate specificity ATP-binding cassette transporter ABCG2 (Mus musculus, UniProt Q7TMS5); assay: TP_TRANSPORTER: biliary excretion; format: functional, organism-based, Bile; settings: in vivo
T1 sequence (Q7TMS5 whole entry): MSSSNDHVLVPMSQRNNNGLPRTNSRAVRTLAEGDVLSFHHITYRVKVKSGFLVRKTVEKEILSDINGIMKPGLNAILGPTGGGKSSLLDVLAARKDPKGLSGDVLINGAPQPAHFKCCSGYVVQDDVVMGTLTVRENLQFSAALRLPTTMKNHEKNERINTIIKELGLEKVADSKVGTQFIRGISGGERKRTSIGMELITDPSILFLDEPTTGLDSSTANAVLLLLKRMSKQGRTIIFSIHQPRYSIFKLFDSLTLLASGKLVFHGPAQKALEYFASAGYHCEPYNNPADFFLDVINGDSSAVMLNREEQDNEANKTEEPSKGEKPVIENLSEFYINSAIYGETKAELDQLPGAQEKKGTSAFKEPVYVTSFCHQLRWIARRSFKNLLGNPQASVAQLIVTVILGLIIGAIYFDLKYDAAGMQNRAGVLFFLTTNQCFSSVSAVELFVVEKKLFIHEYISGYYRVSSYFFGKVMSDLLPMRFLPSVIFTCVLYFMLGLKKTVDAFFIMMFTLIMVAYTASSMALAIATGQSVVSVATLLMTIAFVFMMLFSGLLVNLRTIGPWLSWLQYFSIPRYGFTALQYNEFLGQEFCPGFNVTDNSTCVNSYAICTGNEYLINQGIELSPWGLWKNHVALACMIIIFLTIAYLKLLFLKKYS

[2] = biological target: T1, Broad substrate specificity ATP-binding cassette transporter ABCG2; assay: TP_TRANSPORTER: intestinal excretion; format: functional, organism-based; settings: in vivo
[3] = biological target: T1, Broad substrate specificity ATP-binding cassette transporter ABCG2; assay: TP_TRANSPORTER: transcellular transport in MDCKII; format: functional, cell-based; settings: dog, mdck-ii

Measured: Activity

Cn1c(N)nc2ncc(-c3ccccc3)cc21 [2-AMINO-1-METHYL-6- PHENYLIMIDAZO[4,5- B]PYRIDINE]
substrate []: all assays above
